Data reported in patent publication US8299077B2 (Roche Palo Alto LLC, priority 2009, dated 2012).

Tested on: B cell receptor-mediated activation of B cells in human blood (CD69 expression)
Assay: Inhibition of B cell activation in whole blood measured by CD69 expression
Assay type: cell-based
Conditions: anti-IgM stimulation, 20 h, 50% decrease of CD69-positive cells that are also CD20-positive
Protocol: Inhibition of B Cell Activation in Whole Blood Measured by CD69 Expression
A procedure to test the ability of Btk inhibitors to suppress B cell receptor-mediated activation of B cells in human blood is as follows:
Human whole blood (HWB) is obtained from healthy volunteers, with the following restrictions: 24 hr drug-free, non-smokers. Blood is collected by venipuncture into Vacutainer tubes anticoagulated with sodium heparin. Test compounds are diluted to ten times the desired starting drug concentration in PBS (20×), followed by three-fold serial dilutions in 10% DMSO in PBS to produce a nine point dose-response curve. 5.5 μl of each compound dilution is added in duplicate to a 2 ml 96-well V bottom plate (Analytical Sales and Services, #59623-23); 5.5 μl of 10% DMSO in PBS is added to control and no-stimulus wells. HWB (100 μl) is added to each well, and after mixing the plates are incubated at 37 C, 5% CO2, 100% humidity for 30 minutes. Goat F(ab′)2 anti-human IgM (Southern Biotech, #2022-14) (10 μl of a 500 μg/ml solution, 50 μg/ml final concentration) is added to each well (except the no-stimulus wells) with mixing and the plates are incubated for an additional 20 hours.
At the end of the 20 hour incubation, samples are incubated with florescent-probe-labeled anti-bodies (15 μl PE Mouse anti-Human CD20, BD Pharmingen, #555623, and/or 20 ul APC Mouse anti-Human CD69, BD Pharmingen #555533) for 30 minutes, at 37 C, 5% CO2, 100% humidity. Included are induced control, unstained and single stains for compensation adjustments and initial voltage settings. Samples are then lysed with 1 ml of 1× Pharmingen Lyse Buffer (BD Pharmingen #555899), and plates are centrifuged at 1800 rpm for 5 minutes. Supernatants are removed via suction and the remaining pellets are lysed again with another 1 ml of 1× Pharmingen Lyse Buffer, and plates are spun down as before. Supernatants are aspirated and remaining pellets are washed in FACs buffer (PBS+1% FBS). After a final spin, the supernantants are removed and pellets are resuspended in 180 μl of FACs buffer. Samples are transferred to a 96 well plate suitable to be run on the HTS 96 well system on the BD LSR II flow cytometer.
Using appropriate excitation and emission wavelengths for the fluorophores used, data are acquired and percent positive cell values are obtained using Cell Quest Software. Results are initially analyzed by FACS analysis software (Flow Jo). […] The IC50 values are calculated using XLfit software version 3, equation 201.

Structure (SMILES)	IC50 [nM]
CN1CCN(c2ccc(Nc3cc(-c4cccc(-n5ccc6cc(N(C)C)cc(F)c6c5=O)c4CO)cn(C)c3=O)nc2)CC1 [Example I-4, 6-Dimethylamino-8-fluoro-2-(2-hydroxymethyl-3-{1-methyl-5-[5-(4-methyl-piperazin-1-yl)-pyridin-2-ylamino]-6-oxo-1,6-dihydro-pyridin-3-yl}-phenyl)-2H-isoquinolin-1-one]	11
CCNC(=O)Nc1cc(-c2cccc(N3CCc4cc(C(C)(C)C#N)cc(F)c4C3=O)c2CO)cn(C)c1=O [Example I-5, 1-(5-{3-[6-(Cyano-dimethyl-methyl)-8-fluoro-1-oxo-3,4-dihydro-1H-isoquinolin-2-yl]-2-hydroxymethyl-phenyl}-1-methyl-2-oxo-1,2-dihydro-pyridin-3-yl)-3-ethyl-urea]	1080
Cn1cc(-c2cccc(-n3ncc4cc(C(C)(C)C)cc(F)c4c3=O)c2CO)cc(Nc2ccc(C(=O)N3CCOCC3)cn2)c1=O [Example I-9, 6-tert-Butyl-8-fluoro-2-(2-hydroxymethyl-3-{1-methyl-5-[5-(morpholine-4-carbonyl)-pyridin-2-ylamino]-6-oxo-1,6-dihydro-pyridin-3-yl}-phenyl)-2H-phthalazin-1-one]	1
CN1CCN(Cc2ccc(Nc3cc(-c4cccc(N5CCc6cc(C7CC7)cc(F)c6C5=O)c4CO)cn(C)c3=O)nc2)CC1 [Example I-11, 6-Cyclopropyl-8-fluoro-2-(2-hydroxymethyl-3-{1-methyl-5-[5-(4-methyl-piperazin-1-ylmethyl)-pyridin-2-ylamino]-6-oxo-1,6-dihydro-pyridin-3-yl}-phenyl)-3,4-dihydro-2H-isoquinolin-1-one]	58
CCN1CCN(c2ccc(Nc3cc(-c4cccc(N5CCc6cc(C7CC7)cc(F)c6C5=O)c4CO)cn(C)c3=O)nc2)CC1 [Example I-12, 6-Cyclopropyl-2-(3-{5-[5-(4-ethyl-piperazin-1-yl)-pyridin-2-ylamino]-1-methyl-6-oxo-1,6-dihydro-pyridin-3-yl}-2-hydroxymethyl-phenyl)-8-fluoro-3,4-dihydro-2H-isoquinolin-1-one]	43
Cn1cc(-c2cccc(N3CCc4cc(C5CC5)cc(C#N)c4C3=O)c2CO)cc(Nc2ccc(S(C)(=O)=O)cn2)c1=O [Example I-13, 6-Cyclopropyl-2-{2-hydroxymethyl-3-[5-(5-methanesulfonyl-pyridin-2-ylamino)-1-methyl-6-oxo-1,6-dihydro-pyridin-3-yl]-phenyl}-1-oxo-1,2,3,4-tetrahydro-isoquinoline-8-carbonitrile]	4040
Cn1cc(-c2cccc(-n3ncc4cc(C(C)(C)C)cc(F)c4c3=O)c2CO)cc(Nc2ccc(N3CCNCC3)cn2)c1=O [Example I-14, 6-tert-Butyl-8-fluoro-2-{2-hydroxymethyl-3-[1-methyl-6-oxo-5-(5-piperazin-1-yl-pyridin-2-ylamino)-1,6-dihydro-pyridin-3-yl]-phenyl}-2H-phthalazin-1-one]	30
Cn1cc(-c2cccc(-n3ncc4cc(C(C)(C)C)cc(F)c4c3=O)c2CO)cc(Nc2ccc(C3CCNCC3)cn2)c1=O [Example I-16, 6-tert-Butyl-8-fluoro-2-{3-[5-(1′,2′,3′,4′,5′,6′-hexahydro-[3,4′]bipyridinyl-6-ylamino)-1-methyl-6-oxo-1,6-dihydro-pyridin-3-yl]-2-hydroxymethyl-phenyl}-2H-phthalazin-1-one]	48
Cn1cc(-c2cccc(-n3ncc4cc(C(C)(C)C)cc(F)c4c3=O)c2CO)cc(Nc2ccc(N3CCC(C)(O)CC3)cn2)c1=O [Example I-17, 6-tert-Butyl-8-fluoro-2-{2-hydroxymethyl-3-[5-(4-hydroxy-4-methyl-3,4,5,6-tetrahydro-2H-[1,3′]bipyridinyl-6′-ylamino)-1-methyl-6-oxo-1,6-dihydro-pyridin-3-yl]-phenyl}-2H-phthalazin-1-one]	10
Cn1cc(-c2cccc(-n3ncc4cc(C(C)(C)C)cc(F)c4c3=O)c2CO)cc(Nc2ccc(S(C)(=O)=O)cn2)c1=O [Example I-18, 6-tert-Butyl-8-fluoro-2-{2-hydroxymethyl-3-[5-(5-methanesulfonyl-pyridin-2-ylamino)-1-methyl-6-oxo-1,6-dihydro-pyridin-3-yl]-phenyl}-2H-phthalazin-1-one]	11
Cn1cc(-c2cccc(-n3ncc4cc(C(C)(C)C)cc(F)c4c3=O)c2CO)cc(Nc2ccc(OCCO)cn2)c1=O [Example I-19]	14
Cn1cc(-c2cccc(-n3ncc4cc(C(C)(C)C)cc(F)c4c3=O)c2CO)cc(Nc2ccc(C(C)(C)C(=O)O)cn2)c1=O [Example I-20, 2-(6-{5-[3-(6-tert-Butyl-8-fluoro-1-oxo-1H-phthalazin-2-yl)-2-hydroxymethyl-phenyl]-1-methyl-2-oxo-1,2-dihydro-pyridin-3-ylamino}-pyridin-3-yl)-2-methyl-propionic acid]	41
Cn1cc(-c2cccc(-n3ncc4cc(C(C)(C)C)cc(F)c4c3=O)c2CO)cc(Nc2ccc(C(C)(C)C(=O)N3CCOCC3)cn2)c1=O [Example I-21, 6-tert-Butyl-2-(3-{5-[5-(1,1-dimethyl-2-morpholin-4-yl-2-oxo-ethyl)-pyridin-2-ylamino]-1-methyl-6-oxo-1,6-dihydro-pyridin-3-yl}-2-hydroxymethyl-phenyl)-8-fluoro-2H-phthalazin-1-one]	11
CN(C)C(=O)C(C)(C)c1ccc(Nc2cc(-c3cccc(-n4ncc5cc(C(C)(C)C)cc(F)c5c4=O)c3CO)cn(C)c2=O)nc1 [Example I-22, 2-(6-{5-[3-(6-tert-Butyl-8-fluoro-1-oxo-1H-phthalazin-2-yl)-2-hydroxymethyl-phenyl]-1-methyl-2-oxo-1,2-dihydro-pyridin-3-ylamino}-pyridin-3-yl)-N,N-dimethyl-isobutyramide]	14
Cn1ccc(Nc2cc(-c3cccc(-n4ncc5cc(C(C)(C)C)cc(F)c5c4=O)c3CO)cn(C)c2=O)nc1=O [Example I-23, 6-tert-Butyl-8-fluoro-2-{2-hydroxymethyl-3-[1-methyl-5-(1-methyl-2-oxo-1,2-dihydro-pyrimidin-4-ylamino)-6-oxo-1,6-dihydro-pyridin-3-yl]-phenyl}-2H-phthalazin-1-one]	392
Cn1cc(-c2cccc(-n3ncc4cc(C(C)(C)C)cc(F)c4c3=O)c2CO)cc(Nc2ccc(CO)cn2)c1=O [Example I-26, 6-tert-Butyl-8-fluoro-2-{2-hydroxymethyl-3-[5-(5-hydroxymethyl-pyridin-2-ylamino)-1-methyl-6-oxo-1,6-dihydro-pyridin-3-yl]-phenyl}-2H-phthalazin-1-one]	91
Cc1c(-c2cc(Nc3ccc(N4CCN(C)CC4)cn3)c(=O)n(C)c2)cccc1-n1ncc2cc(C(C)(C)C)cc(F)c2c1=O [Example I-28, 6-tert-Butyl-8-fluoro-2-(2-methyl-3-{1-methyl-5-[5-(4-methyl-piperazin-1-yl)-pyridin-2-ylamino]-6-oxo-1,6-dihydro-pyridin-3-yl}-phenyl)-2H-phthalazin-1-one]	181
CCOCCNC(=O)C(C)(C)c1ccc(Nc2cc(-c3cccc(-n4ncc5cc(C(C)(C)C)cc(F)c5c4=O)c3CO)cn(C)c2=O)nc1 [Example I-29, 2-(6-{5-[3-(6-tert-Butyl-8-fluoro-1-oxo-1H-phthalazin-2-yl)-2-hydroxymethyl-phenyl]-1-methyl-2-oxo-1,2-dihydro-pyridin-3-ylamino}-pyridin-3-yl)-N-(2-ethoxy-ethyl)-isobutyramide]	30
CN1CC(Oc2ccc(Nc3cc(-c4cccc(-n5ncc6cc(C(C)(C)C)cc(F)c6c5=O)c4CO)cn(C)c3=O)nc2)C1 [Example I-30, 6-tert-Butyl-8-fluoro-2-(2-hydroxymethyl-3-{1-methyl-5-[5-(1-methyl-azetidin-3-yloxy)-pyridin-2-ylamino]-6-oxo-1,6-dihydro-pyridin-3-yl}-phenyl)-2H-phthalazin-1-one]	10
CNC(=O)C(C)(C)c1ccc(Nc2cc(-c3cccc(-n4ncc5cc(C(C)(C)C)cc(F)c5c4=O)c3CO)cn(C)c2=O)nc1 [Example I-32, 2-(6-{5-[3-(6-tert-Butyl-8-fluoro-1-oxo-1H-phthalazin-2-yl)-2-hydroxymethyl-phenyl]-1-methyl-2-oxo-1,2-dihydro-pyridin-3-ylamino}-pyridin-3-yl)-N-methyl-isobutyramide]	34
CCc1ccc(Nc2cc(-c3cccc(-n4ncc5cc(C(C)(C)C)cc(F)c5c4=O)c3CO)cn(C)c2=O)nc1 [Example I-33, 6-tert-Butyl-2-{3-[5-(5-ethyl-pyridin-2-ylamino)-1-methyl-6-oxo-1,6-dihydro-pyridin-3-yl]-2-hydroxymethyl-phenyl}-8-fluoro-2H-phthalazin-1-one]	218
